Laboratory results as given in patent US6599541B1, “Composition for treatment of drug resistant bacterial infections and a method of treating drug resistant bacterial infections” (priority 1999, dated 2003).
Converted amounts (≈) assume the structure as drawn. “And” between values parts separate entries of the source, which are not always exact repeats. Equal entries are not always repeated. Where two headings read alike, the source gives them in different places.

Assays:
[1] = test system: Mixed Infections; test: Clinical study of NE tablets + antibiotic in non-responding infections
[2] = test system: Staphylococcus aureus; test: Agar Dilution Method of Sensitivity testing, NE alone and NE + antibiotic; assay type: cell-based; details: for Growth Patterns after addition of NE: no. of cultures +++ (growth) / Growth Patterns after addition of NE: no. of cultures −−− (inhibition of growth): resistant S. aureus cultures, 48 hours
Procedure: (§1) Two kinds of investigations were carried-out using these bacterial isolates—using an Agar Dilution Method of Sensitivity testing.
(§2) i) To ascertain whether, NE can work as an antibacterial substance on its own. For this purpose, a stock-solution of NE was prepared and was sterilized as described in the preliminary experiments.
(§3) ii) This stock-solution was dispensed into the culture medium (Mueller Hinton Agar) so as to provide while; the medium was in liquid form. Four different concentrations of NE, viz.
(§4) iii) This medium was poured into petri dishes and allowed to solidify. Resistant cultures were inoculated on to these plates and after incubation for 48 hours, the growth patterns were assessed.
(§5) iv) The experiments were run in triplicate, for each concentration—as per standard practices of microbiological testing procedures.
(§6) i) The culture medium (Mueller Hinton Agar) was melted and distributed into a number of test tubes.
(§7) ii) The stock solution of NE was dispensed into these test tubes in four different concentrations viz.
(§8) iii) In the same medium, one of the antibiotics under investigation was also added so as to provide a variable concentration (at break-even point concentration) as described below:
(§9) iv) The culture medium containing NE extract+the antibiotic were poured into petri dishes and allowed to solidify.
(§10) v) The resistant bacterial strains were inoculated onto these plates, incubated for 48 hours and the growth patterns were studied on each plate.
These cultures were obtained various clinical samples, such as sputum, non-healing infected wounds, throat swabs etc.

[3] = test system: Staphylococcus aureus; test: Broth tube test of NE with antibiotic at break point, percentage of killing; assay type: cell-based; details: Example 12 strain; antibiotic with NE, uniform for all the concentrations of NE
Procedure: (§11) Since all the study isolates are resistant to the concerned antibiotics, each antibiotic is taken at its breakpoint concentration, (the highest serum concentration of that particular antibiotic reached after the maximum therapeutic dose in-vivo). The break points for various antibiotics are as follows:
(§12) Preparation of Neem Extract: Stock solution of neem extract (1 mg/ml) was prepared, filtered and autoclaved. It was used in 4 concentrations—1000 μg/ml; 500 μg/ml; 250 μg/ml; 125 μg/ml.
(§13) A set of four tubes with variable concentrations of the extract is prepared and to each of these tubes, the break point concentration of antibiotics is added. Now, these sets are inoculated with the study isolate in the same manner as per the broth dilution procedure. A set of six controls is inoculated with each isolate—in parallel with the main experiment.
(§14) 2. Only antibiotic solution
(§15) 3. Medium and antibiotic solution with inoculum
(§16) 5. Only Neem extract at 250 μg/ml
(§17) 6. Medium with Neem Extract and inoculum
(§18) Reading the test All the tests and control tubes are observed for visible turbidity of growth first. Since all the study isolates were earlier confirmed to be resistant to the antibiotics, the bacterial growth is expected at the breakpoint concentration of the antibiotic. Any reduction in the turbidity as compared to the control tube no. 3 is noted as a possible additive or synergistic effect of the neem extract with the antibiotic. In absence of such effect, the tubes may show growth matching with the control no. 4.
(§19) In case of a positive result, further sub-culturing was taken up, on solid media for colony counts with a calibrated loop. The colony counts could be noted by a semi quantitative method as 101 to 10^5 CFU/ml (Colony forming units). This is finally expressed as the percentage of killing as compared to the colony count obtained with control no. 4. Usually control tubes no. 3, 4 and 6 had similar colony counts.

[4] = test system: Escherichia coli; test: Agar Dilution Method of Sensitivity testing, NE alone and NE + antibiotic; assay type: cell-based; details: 37 resistant E. coli strains, 48 hours
Procedure: as §1, §2, §3, §4, §5, §6, §7, §8, §9, §10

[5] = test system: Proteus mirabilis; test: Agar Dilution Method of Sensitivity testing, NE + antibiotic; assay type: cell-based; details: resistant Proteus mirabilis strains, 48 hours
Procedure: as §1, §6, §7, §8, §9, §10
The sensitization effect of NE was also examined on Proteus mirabilis strains resistant to Penicillin derivatives and quinolone derivative antibiotics.

[6] = test system: Klebsiella pneumoniae; test: Agar Dilution Method of Sensitivity testing, NE alone and NE + antibiotic; assay type: cell-based; details: 41 resistant K. pneumoniae strains, 48 hours
Procedure: as §1, §2, §3, §4, §5, §6, §7, §8, §9, §10
Under the same series of investigations, sensitization effect of NE was evaluated on resistant isolates of Klebsiella pneumoniae.

[7] = test system: respiratory/surgical infections by bacteria resistant to the antibiotic; test: Clinical study of NE tablets + antibiotic in non-responding infections, all cases; details: NE tablets 100 mg twice a day + that antibiotic, 1-3 weeks
[8] = test system: Staphylococcus aureus; test: Broth Macro Dilution Test, MIC and MBC; assay type: cell-based; details: Example 12: strain from non-healing burn wound swab culture, antibiotic alone
Procedure: (§20) This was done by estimation of the Minimum Inhibitory Concentration (MIC) and Minimum Bactericidal Concentration (MBC) on the selected isolates by a Broth Macro Dilution Test.
(§21) Cation Supplemented Mueller Hinton Broth was used as medium for all organisms excepting for β haemolytic streptococci for which, Todd Hewit's Broth was used as medium.
(§22) The following concentrations of antibiotics were tested to determine MIC and MBC.
(§23) A minimum inhibitory concentration is the lowest level of antibiotic needed to cause an inhibition to bacterial growth in culture medium whereas, the minimum bactericidal concentration is the lowest concentration of antibiotic to achieve a 100% killing of bacteria. Thus, these two values are the practical indices of intensity of bacterial resistance to a given antibiotic. On the other hand, a break-even point of any antibiotic indicates the attainable blood levels after an administration of full dose, in human/animal body. Thus, this point indicates the practical dosage of administering any given antibiotic effectively and beyond this point, even if an antibiotic is found to act effectively in experimental situation—such dose cannot be administered in a clinical situation.

[9] = test system: β-haemolytic streptococci; test: Broth tube test of NE with antibiotic at break point, percentage of killing; assay type: cell-based; details: for bacterial growth in control tubes: NE and antibiotic added individually
Procedure: as §11, §12, §13, §14, §15, §16, §17, §18, §19

[10] = test system: β-haemolytic streptococci; test: Broth Macro Dilution Test, MIC and MBC; assay type: cell-based; details: antibiotic alone, read-out: minimum inhibitory concentration (MIC)
Procedure: as §20, §21, §22, §23

[11] = highest serum concentration reached after the maximum therapeutic dose in-vivo; cited from earlier work
[12] = test system: Staphylococcus aureus; test: Clinical study of NE tablets + antibiotic in non-responding infections; details: NE tablets + antibiotic to which resistant
[13] = Respiratory Infections, NE tablets + antibiotic to which resistant
[14] = all mixed infections resistant to the antibiotic, NE tablets + antibiotic
[15] = antibiotic at break-even point + NE 125 μg/mL
[16] = antibiotic at break-even point + NE 250 μg/mL
[17] = antibiotic at break-even point + NE 500 μg/mL
[18] = antibiotic at break-even point + NE 1000 μg/mL

In the case of `CC1(C)S[C@@H]2[C@H](NC(=O)[C@H](N)c3ccccc3)C(=O)N2[C@H]1C(=O)O` [Ampicillin], the “No. of Cases Gr.-I” value [1, 13] is reported as 1, the “No. of Cases Gr.-II” value [1, 13] is reported as 1 and the “No. of Cases Gr.-II” value ([1]; Surgical Infections, NE tablets + antibiotic to which resistant) is reported as 1. The “No. of cases with effective sensitization / complete response” value [1, 14] was 2, the “No. of cases with partial response” value [1, 14] was “one” and the “Growth Patterns after addition of NE: no. of cultures +++ (growth)” value (“Growth Patterns … no. of cultures +++ (growth)” below) [2, 15] was 34. The “Growth Patterns after addition of NE: no. of cultures −−− (inhibition of growth)” value [2, 15] was 68, the “Growth Patterns … no. of cultures +++ (growth)” value [2, 16] was 29 and the “Growth Patterns after addition of NE: no. of cultures −−− (inhibition of growth)” value [2, 16] was 73. For the same molecule, the “Growth Patterns … no. of cultures +++ (growth)” value [2, 17] was 26, the “Growth Patterns after addition of NE: no. of cultures −−− (inhibition of growth)” value [2, 17] was 76 and the “Growth Patterns … no. of cultures +++ (growth)” value [2, 18] was 20. For the same molecule, the “Growth Patterns after addition of NE: no. of cultures −−− (inhibition of growth)” value [2, 18] was 82, the killing [3] was 80% and 70% and the “Growth Patterns … no. of cultures +++ (growth)” value [4, 15] was 31. For the same molecule, the “Growth Patterns after addition of NE: no. of cultures −−− (inhibition of growth)” value [4, 15] was 6, the “Growth Patterns … no. of cultures +++ (growth)” value [4, 16] was 31 and the “Growth Patterns after addition of NE: no. of cultures −−− (inhibition of growth)” value [4, 16] was 6. For the same molecule, the “Growth Patterns … no. of cultures +++ (growth)” value [4, 17] was 31, the “Growth Patterns after addition of NE: no. of cultures −−− (inhibition of growth)” value [4, 17] was 6 and the “Growth Patterns … no. of cultures +++ (growth)” value [4, 18] was 31. The “Growth Patterns after addition of NE: no. of cultures −−− (inhibition of growth)” value [4, 18] was 6, the “Growth Patterns … no. of cultures +++ (growth)” value [5, 15] was 7 and the “Growth Patterns after addition of NE: no. of cultures −−− (inhibition of growth)” value [5, 15] was 3. The “Growth Patterns … no. of cultures +++ (growth)” value [5, 16] was 7, the “Growth Patterns after addition of NE: no. of cultures −−− (inhibition of growth)” value [5, 16] was 3 and the “Growth Patterns … no. of cultures +++ (growth)” value [5, 17] was 7. The “Growth Patterns after addition of NE: no. of cultures −−− (inhibition of growth)” value [5, 17] was 3, the “Growth Patterns … no. of cultures +++ (growth)” value [5, 18] was 7 and the “Growth Patterns after addition of NE: no. of cultures −−− (inhibition of growth)” value [5, 18] was 3. The “Growth Patterns … no. of cultures +++ (growth)” value [6, 15] was 17, the “Growth Patterns after addition of NE: no. of cultures −−− (inhibition of growth)” value [6, 15] was 24 and the “Growth Patterns … no. of cultures +++ (growth)” value [6, 16] was 17. For the same molecule, the “Growth Patterns after addition of NE: no. of cultures −−− (inhibition of growth)” value [6, 16] was 24, the “Growth Patterns … no. of cultures +++ (growth)” value [6, 17] was 17 and the “Growth Patterns after addition of NE: no. of cultures −−− (inhibition of growth)” value [6, 17] was 24. For the same molecule, the “Growth Patterns … no. of cultures +++ (growth)” value [6, 18] was 17, the “Growth Patterns after addition of NE: no. of cultures −−− (inhibition of growth)” value [6, 18] was 24 and the “No. of cases with Grade-II response (complete clinical and bacteriological)” value [7] was 4. For the same molecule, the MBC [8] was over 128 µg/mL and the MIC [8] was 64 µg/mL (≈ 183 µM).
With `CC[C@H]1OC(=O)[C@H](C)[C@@H](O[C@H]2C[C@@](C)(OC)[C@@H](O)[C@H](C)O2)[C@H](C)[C@@H](O[C@@H]2O[C@H](C)C[C@H](N(C)C)[C@H]2O)[C@](C)(O)C[C@@H](C)C(=O)[C@H](C)[C@@H](O)[C@]1(C)O` [Erythromycin] the “clinical strains sensitized by NE to the antibiotic” value ([2]; 102 resistant S. aureus cultures, NE + antibiotic) was 50%, the “Growth Patterns … no. of cultures +++ (growth)” value [2, 15] was 72 and the “Growth Patterns after addition of NE: no. of cultures −−− (inhibition of growth)” value [2, 15] was 30. The “Growth Patterns … no. of cultures +++ (growth)” value [2, 16] was 66, the “Growth Patterns after addition of NE: no. of cultures −−− (inhibition of growth)” value [2, 16] was 36 and the “Growth Patterns … no. of cultures +++ (growth)” value [2, 17] was 61. For the same molecule, the “Growth Patterns after addition of NE: no. of cultures −−− (inhibition of growth)” value [2, 17] was 41, the “Growth Patterns … no. of cultures +++ (growth)” value [2, 18] was 51 and the “Growth Patterns after addition of NE: no. of cultures −−− (inhibition of growth)” value [2, 18] was 51. The “bacterial growth in control tubes” value ([9]; Example 8 isolate) was “unhindered”, the bactericidal effect ([9]; Example 8 isolate, antibiotic 4 μg/ml combined with NE 1000 μg/ml) was 99% and the bactericidal effect ([9]; Example 8 isolate, antibiotic 4 μg/ml combined with NE 125, 250 and 500 μg/ml) was 100%. The “bacterial growth in control tubes” value ([9]; Example 9 isolate) was “unhindered”, the bactericidal effect ([9]; Example 9 isolate, antibiotic at break even point combined with NE 250 μg/ml and 125 μg/ml) was 99% and the killing ([9]; Example 9 isolate, antibiotic at break-even point combined with NE 500 μg/ml or 1000 μg/ml) was 50%. The MBC [8] was over 256 µg/mL, the MIC ([10]; Example 8: isolate from throat swab culture) was 64 µg/mL (≈ 87.2 µM) and the MIC ([10]; Example 9: isolate from sputum culture) was 32 µg/mL (≈ 43.6 µM). For the same molecule, the break point [11] was 4 µg/mL.
In the case of `CC[C@H]1OC(=O)[C@H](C)[C@@H](O[C@H]2C[C@@](C)(OC)[C@@H](O)[C@H](C)O2)[C@H](C)[C@@H](O[C@@H]2O[C@H](C)C[C@H](N(C)C)[C@H]2O)[C@](C)(O)C[C@@H](C)/C(=N\OCOCCOC)[C@H](C)[C@@H](O)[C@]1(C)O` [Roxythromycin], the “No. of Cases Gr.-I” value ([12]; Respiratory Infections) is reported as 1, the “No. of Cases Gr-0” value ([12]; Surgical Infections) is reported as 1 and the “No. of Cases Gr.-II” value ([12]; Surgical Infections) is reported as 2. The “No. of cases with Grade-II response (complete clinical and bacteriological)” value [7] was 2.
